Assays:
[1] = test system: OE21 (human squamous cell carcinoma of the esophagus); experiment: In vitro antiproliferative activity, OE21; format: cell-based; conditions: OE21, 72 hours
Method: The in vitro antiproliferative assays for Compound (1) were conducted using a small panel of cancer cell lines including human squamous cell carcinoma of the esophagus (OE21, TE-8), human adenocarcinoma of the esophagus (OE33), and human uterine sarcoma (MES-SA, MES-SA-Dx5-Rx1). All cell lines were cultured in RPMI-1640 medium containing 10% FBS, and penicillin-streptomycin (culture medium), in a 5% CO2 incubator (37° C.). To each well of a 96 well plate (Becton, Dickinson and Company, 353219), 75 μL of cell suspension adjusted to a concentration of 4×10^4 cells/mL with the culture medium was added, and the cells were incubated overnight in a 5% CO2 incubator (37° C.). On the next day, 25 μL of Compound (1) in three-fold dilution series suspended in the culture medium was added to each well, and the resultant was incubated for 72 hours in a 5% CO2 incubator (37° C.). Then, cell viability was determined by CellTiter-Glo® Luminescent Cell Viability Assay (Promega) with 2013 EnVision™ Multilabel Reader (Perkin-Elmer, Wellesley, Mass.). Value of the wells containing cells without adding the test compounds was defined as 100% and the value of the wells containing no cells was defined as 0%. […] The P-gp susceptibility was calculated as the ratio of the IC50 value in MES-SA-Dx5-Rx1 cells, which overexpress P-gp, to the IC50 value in MES-SA cells.

[2] = test system: EDA-fibronectin; experiment: Effect on EDA-fibronectin in the FaDu subcutaneous model in mice; format: in vivo; conditions: Compound (1) 180 μg/kg + CTX 10 mg/kg on Day 1, five days after, compared with control tumors
Method: A human squamous cell carcinoma of the head and neck (SCCHN) cell line FaDu, which had been cultured in an RPMI-1640 medium containing 10% FBS, and penicillin-streptomycin (culture medium), was adjusted to a concentration of 5×10^7 cells/mL with culture medium to prepare a cell suspension. The cell suspension was inoculated in a volume of 100 μL into a subcutaneous part of a right flank of nude mice, 6 weeks of ages (CAnN.Cg-Foxnlnu/CrlCrlj, female, Charles River Laboratories Japan, Inc.). Ten days after cell inoculation, the mice were grouped such that averages of the tumor volumes were substantially equal among the groups. The experiment was conducted on groups each consisting of 5 mice. Compound (1) was dissolved in DMSO and a solution was stored in the freezer before use. […] Five days after the single administration, tumor samples were collected and fixed with IHC Zinc Fixative (BD Pharmingen) at 4° C. for 24 hr. Paraffin-embedded tissues were sectioned (3 μm), mounted on positively charged slides, and air-dried. Sections were deparaffinized, conditioned and the antigens were retrieved using microwave with 1 mM EDTA at pH 6.0 for Tenascin-C. For EDA-fibronectin, the antigens retrieval procedure was not necessary. […]

[3] = test system: HSC-2-Luc orthotopic transplantation (tongue); experiment: HSC-2 orthotopic transplantation mouse model; format: in vivo, mice
[4] = test system: microtubule dynamics in U2OS-EB3-AG osteosarcoma cell line; experiment: Cell-based microtubule dynamics assay
Method: A cell-based microtubule (MT) dynamics assay was conducted with the U2OS-EB3-AG osteosarcoma cell line, in which the fusion protein of EB3 (a microtubule plus end binding protein) and Azami-Green (EB3-AG) was stably expressed. U2OS-EB3-AG cells were culture in RPMI-1640 medium containing 10% FBS, and penicillin-streptomycin, at 37° C. in a humidified 5% CO2 atmosphere. The MT dynamics in the live cells can be visualized as the movement of the comet-like structure of EB3-AG. U2OS-EB3-AG cells plated on glass-base culture plates (EZVIEW plate, AGC Techno Glass, Japan) were treated with Compound (1) at the indicated concentration and the microtubule dynamics were monitored by time-lapse imaging using fluorescent microscope with 60-fold magnification oil-immersed objective lens (BZ-X710, KEYENCE, Japan). Higher magnification views of the boxed areas were shown in inlets. When treated with Compound (1) at 0.5 nM (IC50 value for antiproliferative activity in U2OS-EB3-AG cells), the comet-like structures became hard to observe at around 60 minutes after the addition of the compound.

[5] = test system: HCC1806 subcutaneous xenograft; experiment: Antitumor activity against HCC1806 subcutaneous xenograft model in mice as monotherapy; format: in vivo; conditions: 0.18 mg/kg intravenously, Q7D×2
Method: A human breast cancer cell line HCC1806, which had been cultured in an RPMI-1640 medium containing 10% FBS, and penicillin and streptomycin, was adjusted to a concentration of 1×10^8 cells/mL with PBS to prepare a cell suspension, and the suspension was mixed with Matrigel™ (BD Bioscience, #366237) in a ratio of 1:1 to prepare a cell suspension in a concentration of 5×10^7 cell/mL. The cell suspension was inoculated in a volume of 100 μL into a subcutaneous part of a right flank of nude mice, 5 weeks of ages (CAnN.Cg-Foxnlnu/CrlCrlj, female, Charles River Laboratories Japan, Inc.).
On the basis of the volumes of tumors obtained on the first day of administration, the mice were grouped such that averages of the tumor volumes were substantially equal among the groups. The experiment was conducted on groups each consisting of 6 mice. Test compound was dissolved in saline and intravenously administered at 0.18 mg/kg once a week for 2 weeks (Q7D×2 schedule).

C=C1C[C@@H]2CC[C@@]34C[C@H]5O[C@H]6[C@@H](O3)[C@H]3O[C@H](CC[C@@H]3O[C@H]6C5O4)CC(=O)O[C@@H]3[C@@H](C)[C@@H]4O[C@@H]5C[C@]6(C[C@@H]7O[C@]8(C[C@H](C)[C@@H]9O[C@H](CN)[C@H](O)C[C@@H]9O8)C[C@H](C)[C@@H]7O6)O[C@@H]5C[C@@H]4O[C@H]3C[C@H]3O[C@@H](CC[C@@H]1O2)C[C@@H](C)C3=C [Compound (1)]
antiproliferative activity [1]: potent antiproliferative agent
expression level of ED-A fibronectin [2]: reduced
survived mice on Day 100 ([3]; Compound (1)+CTX combination group, n=16): 10
bioluminescence signal ([3]; with cetuximab, after Day 14): clearly reduced the bioluminescence signal in all mice
effect on microtubule (MT) dynamics [4]: had the ability to suppress the MT dynamics
time at which comet-like structures of EB3-AG became hard to observe ([4]; 0.5 nM, after the addition of the compound): around 60 minutes
Tumor Regression (%) [5]: 90%

Source: US11725015B2, “Macrocyclic compound and uses thereof” (President and Fellows of Harvard College, priority 2017, dated 2023)
